Assay results as given in US8778947B2 (Intermune, Inc., priority 2012, dated 2014).
Entries after “also recorded” stand apart in the source; their conditions may differ. Where two headings read alike, the source gives them in different places.

Assays:
[1] = cited from earlier work
[2] = Phase 1 open-label crossover study: safety (adverse events); assay type: in vivo, human (healthy subjects)
Description: The Safety population was defined as subjects who received any amount of pirfenidone or ciprofloxacin.

CYP1A2 = CYP1A2 (Homo sapiens, UniProt P05177); settings: in vitro experiments; cited from earlier work
clinical = settings: human, in vivo, po; for AUC(0-inf): AUC0-∞
Description: 750-mg tablets orally, as follows: • Day 2: 750 mg in the evening • Days 3-6: 750 mg twice a day (BID) • Day 7: 750 mg in the morning.
Both noncompartmental methods and a previously derived population PK (i.e., compartmental) model were used to analyze the plasma concentration-time data and characterize individual subject PK parameters.

[3] = Ciprofloxacin-pirfenidone in vitro-in vivo extrapolation (IVIVE) simulations of pirfenidone AUC change; settings: from in vitro and in vivo data coupled with IVIVE simulations
Description: In brief, the process involves combining in vitro knowledge regarding the properties of a potential inhibitor [IC50 values for various cytochrome P450 (CYP) enzymes] with the in vitro knowledge regarding the pathways of metabolism of a given substrate (fraction metabolized by various CYP enzymes).

[4] = Ratio of Day 6/7 (during ciprofloxacin dosing) to Day 1/2 (pre-ciprofloxacin dosing), N = 27
[5] = plasma, single 801 mg oral pirfenidone with food, Study Day 1/2 (Pre-Ciprofloxacin), N = 27
[6] = plasma, single 801 mg oral pirfenidone with food, Study Day 6/7 (During Ciprofloxacin 750 mg BID), N = 27

Sequence of CYP1A2 (P05177 whole entry): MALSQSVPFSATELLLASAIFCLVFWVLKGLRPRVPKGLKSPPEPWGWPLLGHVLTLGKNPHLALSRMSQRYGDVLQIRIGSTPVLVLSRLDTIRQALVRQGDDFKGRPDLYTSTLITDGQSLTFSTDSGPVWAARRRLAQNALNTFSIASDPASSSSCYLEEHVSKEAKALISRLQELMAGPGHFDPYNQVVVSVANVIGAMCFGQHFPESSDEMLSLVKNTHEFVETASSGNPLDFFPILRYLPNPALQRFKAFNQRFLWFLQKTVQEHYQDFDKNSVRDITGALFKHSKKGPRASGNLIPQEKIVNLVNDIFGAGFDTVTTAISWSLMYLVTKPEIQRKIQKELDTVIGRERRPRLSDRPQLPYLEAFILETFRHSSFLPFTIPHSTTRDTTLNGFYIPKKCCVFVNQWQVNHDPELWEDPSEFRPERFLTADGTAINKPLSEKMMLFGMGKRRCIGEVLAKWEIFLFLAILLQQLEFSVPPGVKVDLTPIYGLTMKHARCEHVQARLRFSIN

**Q.** Which “[I]in, u (free-drug concentration of the inhibitor entering the liver)” value ([1]; Ciprofloxacin 250 mg BID) does the source give for `O=C(O)c1cn(C2CC2)c2cc(N3CCNCC3)c(F)cc2c1=O` [Ciprofloxacin, 1-cyclopropyl-6-fluoro-1,4-dihydro-4-oxo-7-(1-piperazinyl)-3-quinolinecarboxylic acid] here?
**A.** Its value is 52.

**Q.** And the “[I]in, u (free-drug concentration of the inhibitor entering the liver)” value ([1]; Ciprofloxacin 500 mg BID)?
**A.** Its value is 52.

**Q.** What about the “[I]in, u (free-drug concentration of the inhibitor entering the liver)” value ([1]; ciprofloxacin 750 mg BID) of the same compound?
**A.** Its value is 78.

**Q.** Which “subjects whose strongest AE relationship was probably related to pirfenidone” value ([2]; as assessed by the investigator) does the source give for `Cc1ccc(=O)n(-c2ccccc2)c1` [Pirfenidone, 5-methyl-1-phenyl-2-(1H)-pyridone] here?
**A.** The value was 6 subjects.

**Q.** What about the “subjects with pirfenidone-related AEs only on Day 6” value ([2]; coadministration with ciprofloxacin) of the same compound?
**A.** The value was 5 subjects.

**Q.** And the “subjects with AEs considered related to pirfenidone on Day 1” value ([2]; dosing with pirfenidone only)?
**A.** Its value is “One”.

**Q.** And the “T1/2, Min, Max” value (human, in vivo, po)?
**A.** Its value is 2.8, 5.6.

**Q.** What about the “Tmax, Min, Max” value (human, in vivo, po) of the same compound?
**A.** The value was 1, 4.1.

**Q.** What about the “AUC0-∞, Min, Max” value (human, in vivo, po, 801 mg) of the same compound?
**A.** Its value is 30, 88.2.

**Q.** What about the “Cmax, Min, Max” value (human, in vivo, po, 801 mg) of the same compound?
**A.** Its value is 6.6, 14.4.

**Q.** And the “T1/2, Min, Max” value (human, in vivo, po, 801 mg)?
**A.** The value was 1.4, 3.6.

**Q.** And the “Tmax, Min, Max” value (human, in vivo, po, 801 mg)?
**A.** The value was 1, 3.

**Q.** And the “CYP isoform metabolizing pirfenidone in vitro” value (CYP1A2)?
**A.** The value was “primarily metabolized by CYP1A2; also recorded: predominantly carried out by CYP1A2”.

**Q.** And the AUC(0-inf) (clinical; 801 mg, Geometric Mean)?
**A.** Its AUC(0-inf) is 50800 ng·h/mL.

**Q.** What about the AUC(0-inf) (clinical; 801 mg, Mean (SD)) of the same compound?
**A.** The AUC(0-inf) was 51900 ng·h/mL.

**Q.** What about the AUC(0-inf) (clinical; 801 mg, Median) of the same compound?
**A.** Its AUC(0-inf) is 53200 ng·h/mL.

**Q.** What about the Cmax (clinical; 801 mg, Geometric Mean) of the same compound?
**A.** Its Cmax is 10700 ng/mL.

**Q.** And the Cmax (clinical; 801 mg, Mean (SD))?
**A.** The Cmax was 10400 ng/mL.

**Q.** And the Cmax (clinical; 801 mg, Median)?
**A.** The Cmax was 10400 ng/mL.

**Q.** And the half-life (clinical; 801 mg, T1/2 (apparent terminal elimination half-life), Geometric Mean)?
**A.** Its half-life is 2.4 h.

**Q.** And the half-life (clinical; 801 mg, T1/2, Mean (SD))?
**A.** The half-life was 2.5 h.

**Q.** What about the Tmax (clinical; 801 mg, Geometric Mean) of the same compound?
**A.** Its Tmax is 2.2 h.

**Q.** What about the Tmax (clinical; 801 mg, Mean (SD)) of the same compound?
**A.** Its Tmax is 2.2 h.

**Q.** What about the Tmax (clinical; 801 mg, Median) of the same compound?
**A.** The Tmax was 2 h.

**Q.** What about the half-life (clinical; T1/2 (apparent terminal elimination half-life), Geometric Mean) of the same compound?
**A.** Its half-life is 4.1 h.

**Q.** And the half-life (clinical; T1/2, Mean (SD))?
**A.** Its half-life is 4 h.

**Q.** What about the half-life (clinical; T1/2, Median) of the same compound?
**A.** The half-life was 4 h.

**Q.** What about the Tmax (clinical; Geometric Mean) of the same compound?
**A.** Its Tmax is 2.3 h.

**Q.** And the Tmax (clinical; Mean (SD))?
**A.** Its Tmax is 2.6 h.

**Q.** And the Tmax (clinical; Median)?
**A.** The Tmax was 2 h.

**Q.** And the “share of in vivo metabolism of pirfenidone for which CYP1A2 is responsible” value [3]?
**A.** The value was 70-80%.

**Q.** What does the source list for `O=C(O)c1ccc(=O)n(-c2ccccc2)c1` [5-Carboxy-Pirfenidone, 5-carboxy-pirfenidone]?
**A.** AUC0-∞ Geometric Mean Ratio (90% Confidence Interval) [4]: 0.96 (0.92, 1.00); Cmax Geometric Mean Ratio (90% Confidence Interval) [4]: 0.62 (0.57, 0.66); AUC0-∞ Day 6/7 geometric mean lower than on Day 1/2 (after 801 mg pirfenidone): 7.7%; Cmax lower with ciprofloxacin coadministration on Day 6/7 than Day 1/2 (after 801 mg pirfenidone): 40%; AUC0-∞, Geometric Mean [5]: 32600 ng·h/mL; AUC0-∞, Mean (SD) [5]: 30.9 (4.74) μg*hr/mL; AUC0-∞, Median [5]: 30300 ng·h/mL; Cmax, Geometric Mean [5]: 6500 ng/mL; Cmax, Mean (SD) [5]: 6.1 (1.44) μg/mL; Cmax, Median [5]: 5700 ng/mL; T1/2 (apparent terminal elimination half-life), Geometric Mean [5]: 2.6 h; T1/2, Mean (SD) [5]: 2.7 (0.73) h; Tmax, Geometric Mean [5]: 2.2 h; Tmax, Mean (SD) [5]: 2.3 (0.6) h; Tmax, Median [5]: 2 h; AUC0-∞, Geometric Mean [6]: 30100 ng·h/mL; AUC0-∞, Mean (SD) [6]: 29.6 (4.52) μg*hr/mL; AUC0-∞, Median [6]: 29100 ng·h/mL; Cmax, Geometric Mean [6]: 3800 ng/mL; Cmax, Mean (SD) [6]: 3.8 (0.8) μg/mL; Cmax, Median [6]: 3800 ng/mL; T1/2 (apparent terminal elimination half-life), Geometric Mean [6]: 4 h; T1/2, Mean (SD) [6]: 4.2 (0.93) h; T1/2, Median [6]: 4 h; Tmax, Geometric Mean [6]: 2.1 h; Tmax, Mean (SD) [6]: 2 (0.76) h; Tmax, Median [6]: 2 h; T1/2 (apparent terminal elimination half-life), Geometric Mean (plasma, single 801 mg oral pirfenidone with food, Study Day 6/7 (During Ciprofloxacin 750 mg BID), N = 27, listed as 5-carboxy-pirfenidone): 4.0 h
